# Active and inactive are the calls of the source. No cut-off for these calls is given here.
# Columns and labels:
# [1] = tested on: Mus musculus; test: Radioprotective activity in albino mouse assessed as MDA level at 50 mg/kg, ip administered for 5 days and on day 5 irradiated with gamma radiation and measured after 3 days (reference value: 86 %); format: functional; conditions: time 8 day
# [2] = Toxicity in albino mouse assessed as lethality; conditions: in vivo
# [3] = Effect on PLT level in albino mouse at 50 mg/kg, ip administered for 5 days (reference value: 1135 +/- 91.52 10^3/UL); format: functional; conditions: time 5 day
# [4] = tested on: Mus musculus; test: Radioprotective activity in albino mouse assessed as effect on body weight at 50 mg/kg, ip administered for 5 days and on day 5 irradiated with gamma radiation and measured after 3 days; format: functional, organism-based; conditions: time 8.0 day
# [5] = tested on: Mus musculus; test: Radioprotective activity in albino mouse assessed as Nrf2 level at 50 mg/kg, ip administered for 5 days and on day 5 irradiated with gamma radiation and measured after 3 days (reference value: 23 %); format: functional; conditions: time 8 day
# [6] = Toxicity in albino mouse assessed as effect on liver weight at 50 mg/kg, ip administered for 5 days; format: organism-based; conditions: in vivo, 120 h, time 5 day
# [7] = tested on: Mus musculus; test: Radioprotective activity in albino mouse assessed as PLT level at 50 mg/kg, ip administered for 5 days and on day 5 irradiated with gamma radiation and measured after 3 days (reference value: 500.3 +/- 49.73 10^3/UL); format: functional; conditions: time 8 day
# [8] = Effect on WBC level in albino mouse at 50 mg/kg, ip administered for 5 days (reference value: 2.54 +/- 0.16 10^3/UL); format: functional; conditions: time 5 day
# [9] = biological target: T1, Nuclear factor erythroid 2-related factor 2 (Mus musculus) (UniProt Q60795); test: Activation of Nrf2 in mouse Hepa1c1c7 cells assessed as increase in NQO1 activity at 3.125 uM; format: cell-based; conditions: filed as activator
# T1 sequence (whole entry): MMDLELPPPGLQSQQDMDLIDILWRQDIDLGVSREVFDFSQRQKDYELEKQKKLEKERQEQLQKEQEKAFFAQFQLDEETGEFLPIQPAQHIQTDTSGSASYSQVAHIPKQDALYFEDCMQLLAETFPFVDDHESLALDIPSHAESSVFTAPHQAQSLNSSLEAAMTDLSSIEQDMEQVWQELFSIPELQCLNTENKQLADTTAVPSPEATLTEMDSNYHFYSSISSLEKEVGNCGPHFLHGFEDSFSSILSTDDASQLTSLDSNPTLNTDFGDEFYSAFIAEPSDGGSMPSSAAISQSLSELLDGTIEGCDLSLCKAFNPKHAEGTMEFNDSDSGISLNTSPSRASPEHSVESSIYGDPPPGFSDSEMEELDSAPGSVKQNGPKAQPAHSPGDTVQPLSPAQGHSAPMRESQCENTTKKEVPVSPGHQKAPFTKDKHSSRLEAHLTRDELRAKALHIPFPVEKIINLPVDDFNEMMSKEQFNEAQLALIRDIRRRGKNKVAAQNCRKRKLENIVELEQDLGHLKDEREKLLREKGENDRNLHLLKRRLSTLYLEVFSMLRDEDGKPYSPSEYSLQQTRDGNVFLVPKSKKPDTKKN
# [10] = biological target: T1, Nuclear factor erythroid 2-related factor 2 (Mus musculus); test: Activation of Nrf2 in mouse Hepa1c1c7 cells assessed as concentration required to double induction to increase in NQO1 activity; format: cell-based; conditions: filed as activator
# [11] = Effect on RBC level in albino mouse at 50 mg/kg, ip administered for 5 days (reference value: 7.17 +/- 0.15 10^6/UL); format: functional; conditions: time 5 day
# [12] = biological target: T1, Nuclear factor erythroid 2-related factor 2 (Mus musculus); test: Activation of Nrf2 in mouse Hepa1c1c7 cells assessed as increase in NQO1 activity at 25 uM; format: cell-based; conditions: filed as activator
# [13] = Effect on HCT level in albino mouse at 50 mg/kg, ip administered for 5 days (reference value: 33.45 +/- 1.82 %); format: functional; conditions: time 5 day
# [14] = tested on: Mus musculus; test: Radioprotective activity in albino mouse assessed as organism survival rate at 50 mg/kg, ip administered for 5 days and on day 5 irradiated with gamma radiation and measured after 3 days; format: functional, organism-based; conditions: time 8.0 day
# [15] = biological target: T1, Nuclear factor erythroid 2-related factor 2 (Mus musculus); test: Activation of Nrf2 in mouse Hepa1c1c7 cells assessed as increase in NQO1 activity at 1.6 uM; format: cell-based; conditions: filed as activator
# [16] = Antioxidant activity assessed as DPPH radical scavenging activity; format: functional
# [17] = tested on: Mus musculus; test: Radioprotective activity in albino mouse assessed as WBC level at 50 mg/kg, ip administered for 5 days and on day 5 irradiated with gamma radiation and measured after 3 days (reference value: 0.40 +/- 0.03 10^3/UL); format: functional; conditions: time 8 day
# [18] = biological target: T1, Nuclear factor erythroid 2-related factor 2 (Mus musculus); test: Activation of Nrf2 in mouse Hepa1c1c7 cells assessed as increase in NQO1 activity at 6.25 uM; format: cell-based; conditions: filed as activator
# [19] = tested on: Mus musculus; test: Radioprotective activity in albino mouse assessed as HGB level at 50 mg/kg, ip administered for 5 days and on day 5 irradiated with gamma radiation and measured after 3 days (reference value: 7.98 +/- 0.24 g/dL); format: functional; conditions: time 8 day
# [20] = tested on: Mus musculus; test: Radioprotective activity in albino mouse assessed as ROS level at 50 mg/kg, ip administered for 5 days and on day 5 irradiated with gamma radiation and measured after 3 days (reference value: 39 %); format: functional; conditions: time 8 day
# [21] = tested on: Mus musculus; test: Radioprotective activity in albino mouse assessed as NQO1 level at 50 mg/kg, ip administered for 5 days and on day 5 irradiated with gamma radiation and measured after 3 days (reference value: 192 %); format: functional; conditions: time 8 day
# [22] = biological target: T1, Nuclear factor erythroid 2-related factor 2 (Mus musculus); test: Activation of Nrf2 in mouse Hepa1c1c7 cells assessed as increase in NQO1 activity at 0.4 uM; format: cell-based; conditions: filed as activator
# [23] = biological target: T1, Nuclear factor erythroid 2-related factor 2 (Mus musculus); test: Activation of Nrf2 in mouse Hepa1c1c7 cells assessed as increase in NQO1 activity at 0.8 uM; format: cell-based; conditions: filed as activator
# [24] = Effect on HGB level in albino mouse at 50 mg/kg, ip administered for 5 days (reference value: 10.75 +/- 0.63 g/dL); format: functional; conditions: time 5 day
# [25] = biological target: T1, Nuclear factor erythroid 2-related factor 2 (Mus musculus); test: Activation of Nrf2 in mouse Hepa1c1c7 cells assessed as increase in NQO1 activity at 12.5 uM; format: cell-based; conditions: filed as activator
# [26] = biological target: T1, Nuclear factor erythroid 2-related factor 2 (Mus musculus); test: Activation of Nrf2 in mouse Hepa1c1c7 cells assessed as increase in NQO1 activity at 50 uM; format: cell-based; conditions: filed as activator
# [27] = tested on: Mus musculus; test: Radioprotective activity in albino mouse assessed as HCT level at 50 mg/kg, ip administered for 5 days and on day 5 irradiated with gamma radiation and measured after 3 days (reference value: 23.05 +/- 0.98 %); format: functional; conditions: time 8 day
# [28] = tested on: Mus musculus; test: Radioprotective activity in albino mouse assessed as RBC level at 50 mg/kg, ip administered for 5 days and on day 5 irradiated with gamma radiation and measured after 3 days (reference value: 5.89 +/- 0.27 10^6/UL); format: functional; conditions: time 8 day
# [29] = biological target: T1, Nuclear factor erythroid 2-related factor 2 (Mus musculus); test: Activation of Nrf2 in mouse Hepa1c1c7 cells assessed as increase in NQO1 activity at 0.2 uM; format: cell-based; conditions: filed as activator
# [30] = biological target: T1, Nuclear factor erythroid 2-related factor 2 (Mus musculus); test: Activation of Nrf2 in mouse Hepa1c1c7 cells assessed as increase in NQO1 activity at 7.5 uM; format: cell-based; conditions: filed as activator
# [31] = biological target: T1, Nuclear factor erythroid 2-related factor 2 (Mus musculus); test: Activation of Nrf2 in mouse Hepa1c1c7 cells assessed as increase in NQO1 activity at 0.5 uM; format: cell-based; conditions: filed as activator
# [32] = biological target: T1, Nuclear factor erythroid 2-related factor 2 (Mus musculus); test: Activation of Nrf2 in mouse Hepa1c1c7 cells assessed as increase in NQO1 activity at 30 uM; format: cell-based; conditions: filed as activator
# [33] = biological target: T1, Nuclear factor erythroid 2-related factor 2 (Mus musculus); test: Activation of Nrf2 in mouse Hepa1c1c7 cells assessed as increase in NQO1 activity at 0.9 uM; format: cell-based; conditions: filed as activator
# [34] = biological target: T1, Nuclear factor erythroid 2-related factor 2 (Mus musculus); test: Activation of Nrf2 in mouse Hepa1c1c7 cells assessed as increase in NQO1 activity at 1.9 uM; format: cell-based; conditions: filed as activator
# [35] = biological target: T1, Nuclear factor erythroid 2-related factor 2 (Mus musculus); test: Activation of Nrf2 in mouse Hepa1c1c7 cells assessed as increase in NQO1 activity at 3.75 uM; format: cell-based; conditions: filed as activator
# [36] = biological target: T1, Nuclear factor erythroid 2-related factor 2 (Mus musculus); test: Activation of Nrf2 in mouse Hepa1c1c7 cells assessed as increase in NQO1 activity at 15 uM; format: cell-based; conditions: filed as activator
smiles,measurement,setting,value
NS(=O)(=O)c1ccc(-n2c(SCC(=O)Nc3cccnc3Cl)nc3c(I)cc(I)cc3c2=O)cc1,Activity,[1],32%
same,LD50,[2],500 mg/kg
same,Activity,[3],1030 10^3 /uL
same,Activity,[4],Active
same,Activity,[5],15%
same,Activity,[6],Non-Toxic
same,Activity,[7],956.8 10^3 /uL
same,Activity,[8],2.08 10^3 /uL
same,Activity,[9],1.09
same,CD,[10],25 µM
same,Activity,[11],6.13 10^6 /uL
same,Activity,[12],2.13
same,Activity,[13],26.86%
same,Activity,[14],Active
same,Activity,[15],1
same,IC50,[16],28 µM
same,Activity,[17],1.34 10^3 /uL
same,Activity,[18],1.17
same,Activity,[19],9.9 g/dL
same,Activity,[20],23%
same,Activity,[21],37%
same,Activity,[22],0.99
same,Activity,[23],0.98
same,Activity,[24],8.54 g/dL
same,Activity,[25],1.38
same,Activity,[26],2.65
same,Activity,[27],25.83%
same,Activity,[28],6.37 10^6 /uL
NS(=O)(=O)c1ccc(-n2c(S)nc3c(I)cc(I)cc3c2=O)cc1,IC50,[16],57.1 µM
NS(=O)(=O)c1ccc(-n2c(SCC(=O)Nc3c(Cl)cc(Cl)cc3Cl)nc3c(I)cc(I)cc3c2=O)cc1,Activity,[29],1
same,IC50,[16],161 µM
same,Activity,[30],1
same,Activity,[31],1.02
same,Activity,[32],1.02
same,Activity,[33],1.06
same,Activity,[34],1.04
same,Activity,[35],1.02
same,Activity,[36],1
NS(=O)(=O)c1ccc(-n2c(SCC(=O)Nc3ccc(Br)cc3Br)nc3c(I)cc(I)cc3c2=O)cc1,Activity,[29],1.01
same,IC50,[16],37.8 µM
same,Activity,[30],1.08
same,Activity,[31],1
same,Activity,[32],1.17
same,Activity,[33],1
same,Activity,[34],1.02
same,Activity,[35],1.09
same,Activity,[36],1.13

# — ChEMBL document CHEMBL4819062, “Novel iodinated quinazolinones bearing sulfonamide as new scaffold targeting radiation induced oxidative stress” (Bioorg Med Chem Lett, 2021)
